From patent US20100249089A1, “ABCG2 INHIBITOR” (KABUSHIKI KAISHA YAKULT HONSHA, priority 2007, published 2010)
Like-named read-outs stand apart in the source and are kept apart here.

Assays:
[1] = test system: BCRP-gene-transfected human colon cancer HCT116 cells (HCT116/BCRP cells); experiment: Effect of overcoming anticancer agent resistance in vivo (oral administration), HCT116/BCRP xenograft with CPT-11; set-up: species or system BALB/c male nude mice
Method: To an inguinal region of each of 6-week-old BALB/c male nude mice (5 mice/group), BCRP-gene-transfected human colon cancer HCT116 cells (HCT116/BCRP cells) (obtained from Dr. Yoshikazu Sugimoto, The Cancer Chemotherapy Center of Japanese Foundation for Cancer Research) were subcutaneously transplanted (2×10^6 cells/0.1 mL/mouse). When the tumor volume as estimated from (1/2)ab^2 (a: longer tumor diameter, b: shorter tumor diameter) reached about 100 to 150 mm^3, each of the compounds of the present invention shown in Tables 1 to 4 and a positive control compound (i.e., Compound 14 ((Z)-2-(3,4-dimethoxy-phenyl)-3-{5-[4-(2-hydroxy-ethyl)-piperazin-1-yl]-thiophen-2-yl}-acrylonitrile hydrochloride)), disclosed in Patent Document 3 (WO 2006/106778)) (hereinafter referred to as Earlier Application Compound 14) was orally administered once a day for nine days (9 times in total). […] The dose of each of the compounds of the present invention was adjusted to 0.20 or 0.40 mmol/kg/day, and that of the positive control compound was adjusted to 0.23 or 0.46 mmol/kg/day. For administration, Compound 3 or 5 of the present invention was dissolved in 5% glucose solution, and Compound 4 or 6 was dissolved in Britton-Robinson buffer. […] A solvent was solely administered to a control group. On day 21 from start of administration, a tumor was extirpated from each mouse and weighed, and the tumor growth inhibition ratio IR (%) was derived from the following equation:
Tumor growth inhibition ratio IR (%)=(1−average tumor weight of each administration group/average tumor weight of control group)×100.

[2] = Solubility (HPLC quantification of supernatant); format: physicochemical; conditions: saline or isotonic, thermodynamic from solid; physiological saline, room temperature
[3] = Solubility (HPLC quantification of supernatant); format: physicochemical; conditions: thermodynamic from solid, room temperature, stirred about 30 minutes, 100 mg/mL charged
Method: Each (10 mg) of the compounds of the present invention and Earlier Application Compound 14 shown in Table 5 was weighed and placed in a sealable container, and water or 5% glucose solution was added to the container in such an amount as to adjust the final concentration to 100 mg/mL. The contents of the container were stirred at room temperature for about 30 minutes, followed by centrifugation. The compound concentration of the supernatant recovered through centrifugation was quantified through high-performance liquid chromatography.

[4] = compound 0.20 mmol/kg/day oral once a day for nine days + CPT-11 45 mg/kg/day i.v. day 1, 5, 9, day 21, vs control group
[5] = compound 0.20 mmol/kg/day oral once a day for nine days + CPT-11 45 mg/kg/day i.v. day 1, 5, 9, tumor weighed day 21
[6] = compound 0.40 mmol/kg/day oral once a day for nine days + CPT-11 45 mg/kg/day i.v. day 1, 5, 9, day 21, vs control group
[7] = compound 0.40 mmol/kg/day oral once a day for nine days + CPT-11 45 mg/kg/day i.v. day 1, 5, 9, tumor weighed day 21
[8] = positive control 100 mg/kg/day (0.23 mmol/kg/day) oral for nine days + CPT-11 45 mg/kg/day i.v. day 1, 5, 9, day 21
[9] = positive control 200 mg/kg/day (0.46 mmol/kg/day) oral for nine days + CPT-11 45 mg/kg/day i.v. day 1, 5, 9, day 21
[10] = saline or isotonic, 5% glucose solution, read-out: Solubility in 5% glucose
[11] = water, read-out: Solubility in water

**Q.** Which “Tumor growth inhibition ratio IR (%)” value [1, 4] does the source give for `COc1ccc(/C(C#N)=C/c2ccc(N3CCC(OC(=O)CN4CCCCC4)CC3)s2)cc1OC.Cl` [Compound 3, piperidin-1-yl-acetic acid 1-[5-[(Z)-2-cyano-2-(3,4-dimethoxy-phenyl)-vinyl]-thiophen-2-yl]-piperidin-4-yl ester hydrochloride] here?
**A.** 51.9%

**Q.** And the “Tumor weight (g) Mean ± S.D.” value [1, 5]?
**A.** 0.73 ± 0.07 g

**Q.** What about the “Tumor growth inhibition ratio IR (%)” value [1, 6] of the same molecule?
**A.** 54.7%

**Q.** What about the “Tumor weight (g) Mean ± S.D.” value [1, 7] of the same molecule?
**A.** 0.65 ± 0.11 g

**Q.** Which “Tumor growth inhibition ratio IR (%)” value [1, 8] does the source give for `COc1ccc(/C(C#N)=C/c2ccc(N3CCN(CCO)CC3)s2)cc1OC.Cl` [EAC 14, (Z)-2-(3,4-dimethoxy-phenyl)-3-{5-[4-(2-hydroxy-ethyl)-piperazin-1-yl]-thiophen-2-yl}-acrylonitrile hydrochloride, reference compound] here?
**A.** 23.9%

**Q.** What about the “Tumor weight (g) Mean ± S.D.” value [1, 8] of the same molecule?
**A.** 1.04 ± 0.17 g

**Q.** What about the “Tumor growth inhibition ratio IR (%)” value [1, 9] of the same molecule?
**A.** 35.6%

**Q.** And the “Tumor weight (g) Mean ± S.D.” value [1, 9]?
**A.** 0.88 ± 0.14 g

**Q.** And the solubility [2]?
**A.** < 1 mg/mL

**Q.** And the solubility [3, 10]?
**A.** 6.6 mg/mL

**Q.** And the solubility [3, 11]?
**A.** 6.6 mg/mL

**Q.** For `COc1ccc(/C(C#N)=C/c2ccc(N3CCC(OC(=O)CN4CCCCC4C)CC3)s2)cc1OC.CS(=O)(=O)O` (stereo not drawn) [Compound 12, (2-methyl-piperidin-1-yl)-acetic acid 1-[5-[(Z)-2-cyano-2-(3,4-dimethoxy-phenyl)-vinyl]-thiophen-2-yl]-piperidin-4-yl ester methanesulfonate], which solubility [2] is on record?
**A.** 100 mg/mL

**Q.** And the solubility [3, 10]?
**A.** ≥ 100 mg/mL

**Q.** What about the solubility [3, 11] of the same molecule?
**A.** ≥ 100 mg/mL

**Q.** Which results are given for `COc1ccc(/C(C#N)=C/c2ccc(N3CCC(OC(=O)CN4CCOCC4)CC3)s2)cc1OC.CS(=O)(=O)O` [Compound 22, morpholin-4-yl-acetic acid 1-[5-[(Z)-2-cyano-2-(3,4-dimethoxy-phenyl)-vinyl]-thiophen-2-yl]-piperidin-4-yl ester methanesulfonate]?
**A.** solubility [3, 10]: ≥ 100 mg/mL; solubility [3, 11]: ≥ 100 mg/mL

**Q.** For `COc1ccc(/C(C#N)=C/c2ccc(N3CCC(OC(=O)CN4CCN(C)CC4)CC3)s2)cc1OC.CS(=O)(=O)O` [Compound 20, (4-methyl-piperazin-1-yl)-acetic acid 1-[5-[(Z)-2-cyano-2-(3,4-dimethoxy-phenyl)-vinyl]-thiophen-2-yl]-piperidin-4-yl ester methanesulfonate], which solubility [2] is on record?
**A.** 100 mg/mL

**Q.** What about the solubility [3, 10] of the same molecule?
**A.** ≥ 100 mg/mL

**Q.** And the solubility [3, 11]?
**A.** ≥ 100 mg/mL

**Q.** What does the source list for `COc1ccc(/C(C#N)=C/c2ccc(N3CCC(OC(=O)CN4CCC(O)CC4)CC3)s2)cc1OC.Cl` [Compound 4, (4-hydroxy-piperidin-1-yl)-acetic acid 1-[5-[(Z)-2-cyano-2-(3,4-dimethoxy-phenyl)-vinyl]-thiophen-2-yl]-piperidin-4-yl ester hydrochloride]?
**A.** Tumor growth inhibition ratio IR (%) [1, 4]: 31.8%; Tumor weight (g) Mean ± S.D. [1, 5]: 0.89 ± 0.09 g; Tumor growth inhibition ratio IR (%) [1, 6]: 46.4%; Tumor weight (g) Mean ± S.D. [1, 7]: 0.70 ± 0.11 g

**Q.** Which solubility [2] does the source give for `COc1ccc(/C(C#N)=C/c2ccc(N3CCC(OC(=O)CN4CCCC(CO)C4)CC3)s2)cc1OC.CS(=O)(=O)O` (stereo not drawn) [Compound 14, (3-hydroxymethyl-piperidin-1-yl)-acetic acid 1-[5-[(Z)-2-cyano-2-(3,4-dimethoxy-phenyl)-vinyl]-thiophen-2-yl]-piperidin-4-yl ester methanesulfonate] here?
**A.** 100 mg/mL

**Q.** And the solubility [3, 10]?
**A.** ≥ 100 mg/mL

**Q.** And the solubility [3, 11]?
**A.** ≥ 100 mg/mL

**Q.** With `COc1ccc(/C(C#N)=C/c2ccc(N3CCC(OC(=O)CN4CCCC4)CC3)s2)cc1OC.CS(=O)(=O)O` [Compound 10, pyrrolidin-1-yl-acetic acid 1-[5-[(Z)-2-cyano-2-(3,4-dimethoxy-phenyl)-vinyl]-thiophen-2-yl]-piperidin-4-yl ester methanesulfonate] as the molecule, how does the solubility [3, 10] read?
**A.** ≥ 100 mg/mL

**Q.** And the solubility [3, 11]?
**A.** ≥ 100 mg/mL

**Q.** Which “Tumor growth inhibition ratio IR (%)” value [1, 4] does the source give for `COc1ccc(/C(C#N)=C/c2ccc(N3CCC(OC(=O)CN4CCC(O)CC4)CC3)s2)cc1OC.CS(=O)(=O)O` [Compound 6, (4-hydroxy-piperidin-1-yl)-acetic acid 1-[5-[(Z)-2-cyano-2-(3,4-dimethoxy-phenyl)-vinyl]-thiophen-2-yl]-piperidin-4-yl ester methanesulfonate] here?
**A.** 36.9%

**Q.** And the “Tumor weight (g) Mean ± S.D.” value [1, 5]?
**A.** 0.82 ± 0.04 g

**Q.** And the “Tumor growth inhibition ratio IR (%)” value [1, 6]?
**A.** 41.8%

**Q.** What about the “Tumor weight (g) Mean ± S.D.” value [1, 7] of the same molecule?
**A.** 0.76 ± 0.09 g

**Q.** For `COc1ccc(/C(C#N)=C/c2ccc(N3CCC(OC(=O)CN4CCCCC4)CC3)s2)cc1OC.CS(=O)(=O)O` [Compound 5, piperidin-1-yl-acetic acid 1-[5-[(Z)-2-cyano-2-(3,4-dimethoxy-phenyl)-vinyl]-thiophen-2-yl]-piperidin-4-yl ester methanesulfonate], which “Tumor growth inhibition ratio IR (%)” value [1, 4] is on record?
**A.** 50.9%

**Q.** And the “Tumor weight (g) Mean ± S.D.” value [1, 5]?
**A.** 0.73 ± 0.12 g

**Q.** And the “Tumor growth inhibition ratio IR (%)” value [1, 6]?
**A.** 55.9%

**Q.** And the “Tumor weight (g) Mean ± S.D.” value [1, 7]?
**A.** 0.65 ± 0.16 g

**Q.** What about the solubility [2] of the same molecule?
**A.** 100 mg/mL

**Q.** And the solubility [3, 10]?
**A.** ≥ 100 mg/mL

**Q.** And the solubility [3, 11]?
**A.** ≥ 100 mg/mL

**Q.** With `COc1ccc(/C(C#N)=C/c2ccc(N3CCC(OC(=O)CN4CCC4)CC3)s2)cc1OC.CS(=O)(=O)O` [Compound 8, azetidin-1-yl-acetic acid 1-[5-[(Z)-2-cyano-2-(3,4-dimethoxy-phenyl)-vinyl]-thiophen-2-yl]-piperidin-4-yl ester methanesulfonate] as the molecule, how does the solubility [3, 10] read?
**A.** ≥ 100 mg/mL

**Q.** What about the solubility [3, 11] of the same molecule?
**A.** ≥ 100 mg/mL

**Q.** With `COc1ccc(/C(C#N)=C/c2ccc(N3CCC(OC(=O)CN4CCCCCCC4)CC3)s2)cc1OC.CS(=O)(=O)O` [Compound 18, azocan-1-yl-acetic acid 1-[5-[(Z)-2-cyano-2-(3,4-dimethoxy-phenyl)-vinyl]-thiophen-2-yl]-piperidin-4-yl ester methanesulfonate] as the molecule, how does the solubility [3, 10] read?
**A.** ≥ 100 mg/mL

**Q.** What about the solubility [3, 11] of the same molecule?
**A.** ≥ 100 mg/mL

**Q.** For `COc1ccc(/C(C#N)=C/c2ccc(N3CCC(OC(=O)CN4CCCCCC4)CC3)s2)cc1OC.CS(=O)(=O)O` [Compound 16, azepan-1-yl-acetic acid 1-[5-[(Z)-2-cyano-2-(3,4-dimethoxy-phenyl)-vinyl]-thiophen-2-yl]-piperidin-4-yl ester methanesulfonate], which solubility [3, 10] is on record?
**A.** ≥ 100 mg/mL

**Q.** And the solubility [3, 11]?
**A.** ≥ 100 mg/mL
